According to patent US12162879B2, “Pyridopyrimidine derivative, preparation method therefor and medical use thereof” (Jiangsu Hengrui Medicine Co., Ltd., priority 2018, dated 2024):

Tested on: peripheral blood mononuclear cells (PBMC)
Assay: Stimulation of IFNγ secretion from PBMC
Format: cell-based
Settings: minimum effective concentration, human PBMC, 24 hours
Experimental: The stimulating effect of the compounds of the present invention on the ability of secretion of IL12 and IFN γ from PBMC was determined by the following experimental method.
• 1. RMPI 1640 (Invitrogen, 11875); • 2. FBS (Gibco, 10099-141); • 3. Ficoll-Paque PREMIUM (GE, 17-5442-02); • 4. Trypan blue solution (Sigma, T8154-100 ML); • 5. SepMate™-50 (Stemcell, 15460); • 6. Bright-LineIM blood cell counter (Sigma, Z359629-1EA); • 7. 96-well cell culture plate (Corning, 3599); • 8. 96-well v-bottom plate (Corning, 3894); • 9. Human IL-12 ELISA kit (Neobioscience Technology Co., EHC152.96); • 10. Human IFN γ kit (cisbio, 62HIFNGPEG); and • 11. PHERAStar multi-function microplate reader (BMG, PHERAStar). II. Experimental Procedures
The compound was diluted with pure DMSO to a maximum concentration of 5 mM, and a total of 9 points were obtained by a 4-fold gradient dilution. 4 μl of the compound solution was then added to 196 μl of RMPI 1640 medium containing 10% FBS and mixed well. 50 μl of the mixture was taken and added to a 96-well cell culture plate.
All reagents were equilibrated to room temperature. 60 ml of blood from a healthy human and the same volume of PBS (containing 2% FBS) were added to a 250 ml culture flask, gently pipetted, mixed well and diluted. 15 ml of lymphocyte separation solution Ficoll-Paque PREMIUM was added to a 50 ml PBMC centrifuge tube SepMate™-50, followed by the addition of 30 ml of the above diluted blood. The mixture was centrifuged at 1200 g for 10 minutes at room temperature. The supernatant was taken and then centrifuged at 300 g for 8 minutes. The cells were re-suspended in the RMPI 1640 medium containing 10% FBS and counted, and the number of PBMCs was adjusted to 3.33×10^6 cells/ml. 150 μl of the cell solution was added to the plate containing the compounds, and incubated in an incubator at 37° C., 5.0% CO2 for 24 hours. The cell culture plate was placed in a centrifuge, and centrifuged at 1200 rpm for 10 minutes at room temperature. 150 μl of the supernatant was taken from each well.
The reagents in the Human IFN γ test kit were equilibrated to room temperature. The standard and detection antibody were prepared according to the kit's instruction under dark conditions. 16 μl of the supernatant obtained by centrifugation was added to each well, and 4 μl of freshly prepared mixed detection antibody was added to each well. The solution was mixed well by shaking, and incubated overnight in the dark at room temperature. The plate was read by the PHERAStar multi-function microplate reader.
The concentration of the compound that can stimulate PBMC to produce […] that is 3 times higher than the average value of the group without the compound (SD of the group without the compound) was defined as the minimum effective concentration (MEC) value of the compound.

Compound	IFNγ MEC
CCCC[C@](C)(CO)Nc1nc(N)nc2cc(-c3ccc(CN4CCCC4)nc3)cnc12 [Example 2, (R)-2-((2-Amino-7-(6-(pyrrolidin-1-ylmethyl)pyridin-3-yl)pyrido[3,2-d]pyrimidin-4-yl)amino)-2-methylhexan-1-ol]	24 nM
CCCC[C@](C)(CO)Nc1nc(N)nc2cc(-c3ccc(C4CCN(C)CC4)nc3)cnc12 [Example 4, (R)-2-((2-Amino-7-(6-(1-methylpiperidin-4-yl)pyridin-3-yl)pyrido[3,2-d]pyrimidin-4-yl)amino)-2-methylhexan-1-ol]	33 nM

Target: CYP3A4 (testosterone metabolite site) (Homo sapiens (Human), UniProt P08684)
Assay: Inhibition of enzyme activity of testosterone metabolite site of CYP3A4 in human liver microsomes
Format: in vitro ADME
Settings: human liver microsome, testosterone probe substrate, 30 minutes
Experimental: The effect of the compounds of the present invention on the enzyme activity of testosterone metabolite site of CYP3A4 in human liver microsomes was determined by the following experimental method.
• 1. Phosphate buffer solution (PBS); • 2. NADPH (Sigma N-1630); • 3. Human liver microsome (Corning Gentest); • 4. ABI QTrap 4000 liquid chromatograph/mass spectrometer (AB Sciex); • 5. Inertsil C8-3 column, 4.6×50 mm, 5 μm (Dikma Technologies Inc., USA); and • 6. CYP probe substrate (testosterone/100 μM, […]) and positive control inhibitor (ketoconazole, Dr. Ehrenstorfer GmbH, C17322500). II. Experimental Procedures
100 mM PBS buffer was formulated, which was then used to formulate 2.5 mg/ml human microsome solution and 5 mM NADPH solution. The 5× concentration of the compound working solution was diluted with PBS in gradients (150, 50, 15, 5, 1.5, 0.15, 0.015, 0 μM). The 5× concentration of ketoconazole working solution was diluted with PBS in gradients (150, 50, 15, 5, 1.5, 0.15, 0.015, 0 μM). […] working solution was diluted with PBS to a concentration of 50 μM.
20 μl of 2.5 mg/ml microsome solution, 20 μl of 50 μM testosterone working solution, 20 μl of MgCl2 solution and 20 μl of the compound working solution (150, 50, 15, 5, 1.5, 0.15, 0.015, 0 μM, different reaction systems for each concentration) were mixed well. For the positive control group, the compound was replaced with the same concentration of ketoconazole. The mixture together with 5 mM NADPH solution was pre-incubated at 37° C. for 5 minutes. After 5 minutes, 20 μl of NADPH was added to each well, the reaction was initiated, and the plate was incubated for 30 minutes. All the incubated samples were present in duplicate. After 30 minutes, 250 μl of acetonitrile containing internal standard (100 ng/ml camptothecin) was added to all samples, mixed well, shaken at 800 rpm for 10 minutes, and then centrifuged at 3700 rpm for 10 minutes. 80 μl of the supernatant was taken and analyzed by LC-MS/MS.
The data was calculated by Graphpad Prism to obtain the IC50 values of the compounds on the testosterone metabolite site of CYP3A4, which are shown in Table 4.

Sequence of CYP3A4 (testosterone metabolite site) (P08684 whole entry): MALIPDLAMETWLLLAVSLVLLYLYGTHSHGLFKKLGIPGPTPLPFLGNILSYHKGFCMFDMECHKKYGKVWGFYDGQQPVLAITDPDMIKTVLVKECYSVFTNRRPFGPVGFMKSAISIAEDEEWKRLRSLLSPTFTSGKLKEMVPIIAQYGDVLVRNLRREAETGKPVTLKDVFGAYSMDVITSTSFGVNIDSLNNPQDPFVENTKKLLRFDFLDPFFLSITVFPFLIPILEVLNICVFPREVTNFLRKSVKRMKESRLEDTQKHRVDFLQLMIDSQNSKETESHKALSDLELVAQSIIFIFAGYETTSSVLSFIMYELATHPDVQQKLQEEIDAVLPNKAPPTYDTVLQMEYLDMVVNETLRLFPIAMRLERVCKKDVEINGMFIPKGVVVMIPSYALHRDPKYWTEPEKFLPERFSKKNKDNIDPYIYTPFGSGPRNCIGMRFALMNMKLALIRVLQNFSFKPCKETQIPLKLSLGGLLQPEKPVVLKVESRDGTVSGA

Compound	IC50
CCCC[C@](C)(CO)Nc1nc(N)nc2cc(-c3ccc(C4CCN(C)CC4)nc3)cnc12 [Example 4, (R)-2-((2-Amino-7-(6-(1-methylpiperidin-4-yl)pyridin-3-yl)pyrido[3,2-d]pyrimidin-4-yl)amino)-2-methylhexan-1-ol]	16 µM
CCCCC(C)(CO)Nc1nc(N)nc2cc(-c3ccc(CN4CCN(C)CC4)nc3)cnc12 (stereo not drawn) [Example 5, 2-((2-Amino-7-(6-((4-methylpiperazin-1-yl)methyl)pyridin-3-yl)pyrido[3,2-d]pyrimidin-4-yl)amino)-2-methylhexan-1-ol]	8.3 µM
CCCC[C@](C)(CO)Nc1nc(N)nc2cc(-c3ccc(CN4CCN(C)CC4)nc3)cnc12 [Example 6, (R)-2-((2-Amino-7-(6-((4-methylpiperazin-1-yl)methyl)pyridin-3-yl)pyrido[3,2-d]pyrimidin-4-yl)amino)-2-methylhexan-1-ol]	> 30 µM
CCCC[C@](C)(CO)Nc1nc(N)nc2cc(-c3cnc(C4CCN(C)CC4)nc3)cnc12 [Example 8, (R)-2-((2-Amino-7-(2-(1-methylpiperidin-4-yl)pyrimidin-5-yl)pyrido[3,2-d]pyrimidin-4-yl)amino)-2-methylhexan-1-ol]	> 30 µM
